The nature of series [1]: Treatment of laminitis in horses. It counts as in vivo. The conditions noted are these: horse L: on Bute for two months. Here is the method: (§1) The loading dose is from three to ten days according to individual perceived clinical need. After the loading dose, the maintenance dose follows for a minimum (normally) of 30 days continuing as needed. The doses are scaled according to individual size/body weight. The dose was added as a powder in the animals' feed.
(§2) JMJ, FRA and D-Tox are available from Nutrilabs of Penrhos, Raglan, Monmouthshire. They are used to make the following Example compositions according to the invention, which were used in Examples A to AA below. The following gives a daily dose for a 450 kg horse. With any of the following Example Compositions during ANY acute phase, a loading dose of 3 times the daily dose may be used to assist a rapid return to ‘well being’.

The test system of series [2] is platelets. Put plainly: Born aggregometry: ADP-induced platelet aggregation in platelet rich plasma (PRP). It counts as cell-based, human. The conditions noted are these: ADP 4×10^−6 M. Here is the method: Extracts of components were prepared by stirring macerated samples overnight in methanol. The mixtures were centrifuged, the supernatants drawn off and dried to remove all traces of the extracting solvent. Resulting solids were re-suspended in normal saline (0.9% w/v NaCl) at saturated concentrations.
Extracts 2, 5 and 8 were reconstituted in 0.9% saline at saturated concentrations.
Citrated whole blood, from healthy volunteers, was spun at 900 rpm for 20 minutes to obtain platelet rich plasma (PRP). Born aggregometry was then carried out within 1 hour of blood being taken. Extracts 2, 5, and 8 were added to 450 μl PRP either singly (6 μl), or in combination with one other extract (3 μl each), or all the extracts in combination (2 μl each). PRP was then stimulated with ADP (Sigma) 4×10^−6 M. 6 μl of saline was added to PRP for the control. Aggregation was measured in a PAP4C aggregometer (BioData Corp. Horsham USA) over 10 minutes.
The dose of agonist was chosen to give slightly sub-optimal aggregation thus showing the maximum effect of any inhibition. Doses of extracts were chosen to show the effect on platelets when used alone and any added and/or synergistic effect of using combinations. All data is recorded as the maximum aggregation.

Series [3] in a line: Treatment of COPD in horses. It counts as in vivo. Conditions: horse K: COPD. Here is the method: as §1, §2
Series [4] concerns Platelet Activating Factor (PAF). The conditions noted are these: cited from earlier work.

As to `CCCCC1C(=O)N(c2ccccc2)N(c2ccccc2)C1=O` [Bute], the adverse reaction result in series [1] is “ulcers around the mouth and sores on the muzzle”.
Regarding `COc1cc(C(C)=O)ccc1O` [Extract 2, Apocynin], the “effect on platelet aggregation in response to ADP (in words)” value in series [2] is reported as “reduced platelet aggregation in response to ADP”.
For the molecule `CC(C)(C)NCC(O)c1cc(Cl)c(N)c(Cl)c1` (stereo not shown) [Ventipulmin, clenbuterol], the “clinical outcome (owner report)” value in series [3] is “had no effect”.
Turning to `CC1C(=O)OC2C(O)C34C5CC(C(C)(C)C)C36C(OC(=O)C6O)OC4(C(=O)O5)C12O` (stereo not shown) [ginkgolide B], the PAF inhibiting activity result in series [4] is on record as “potent”.

Source of the values: US7067158B2, “Preparation for the relief of disease” (AKL Technologies Limited, priority 2001, dated 2006).
